Read-outs that look alike come from different tables or passages of the source.
Biological target: T1, TrkA kinase (Homo sapiens, UniProt P04629)
T1 construct: purchased Upstate, USA
Assay: In vitro TrkA inhibitory activity using TR-FRET assay
Type: biochemical
Conditions: 5 ng TrkA, 500 μM ATP, values given as bins
Method in brief: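 TrkA kinase (5 ng) was preincubated 30 min at 20-35° C. with compound (1% DMSO final), then 40 nM ULight poly GT and 500 μM ATP were added for 30 min before an EDTA stop. Phosphorylation was detected by Eu anti-phosphotyrosine TR-FRET (ex 340, em 615/665 nm), and IC50 came from sigmoidal fits of 1/3 serial dilutions.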

[1] = read-out: TrkA inhibition in-vitro IC50

T1 sequence (P04629 33-796): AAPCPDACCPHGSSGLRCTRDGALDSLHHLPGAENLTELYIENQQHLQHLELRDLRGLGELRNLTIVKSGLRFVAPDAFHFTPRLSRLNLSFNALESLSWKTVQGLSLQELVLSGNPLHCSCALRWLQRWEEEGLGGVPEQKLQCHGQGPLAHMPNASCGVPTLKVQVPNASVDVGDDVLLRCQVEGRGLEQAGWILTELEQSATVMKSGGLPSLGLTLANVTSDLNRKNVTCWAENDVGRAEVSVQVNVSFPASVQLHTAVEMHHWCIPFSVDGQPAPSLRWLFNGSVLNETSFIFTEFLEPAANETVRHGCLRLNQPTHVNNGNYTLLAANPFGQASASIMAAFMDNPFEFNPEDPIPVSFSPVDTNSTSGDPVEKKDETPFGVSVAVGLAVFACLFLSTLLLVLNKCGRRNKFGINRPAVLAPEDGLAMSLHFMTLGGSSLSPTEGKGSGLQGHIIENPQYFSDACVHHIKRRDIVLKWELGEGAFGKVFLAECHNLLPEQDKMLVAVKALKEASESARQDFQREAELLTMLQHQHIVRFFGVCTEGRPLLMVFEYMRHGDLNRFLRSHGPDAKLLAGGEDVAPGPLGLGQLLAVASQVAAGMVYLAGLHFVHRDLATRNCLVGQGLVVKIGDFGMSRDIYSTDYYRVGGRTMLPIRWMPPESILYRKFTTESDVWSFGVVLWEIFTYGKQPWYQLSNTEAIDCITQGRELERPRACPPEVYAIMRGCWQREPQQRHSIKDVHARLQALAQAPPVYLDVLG

| Structure (SMILES) | IC50 [1] [nM] | IC50 (read-out: TrkA inhibitory activity in-vitro IC50) [nM] |
| --- | --- | --- |
| COCCN(C)S(=O)(=O)NC(=O)c1cnc2ccc(N3CCC[C@@H]3c3cc(F)ccc3F)cn12 [Example 39, (R)-6-(2-(2,5-difluorophenyl)pyrrolidin-1-yl)-N-(N-(2-methoxyethyl)-N-methylsulfamoyl)imidazo[1,2-a]pyridine-3-carboxamide] | ≤ 50 |  |
| CCN(C)S(=O)(=O)NC(=O)c1cnc2ccc(N3CCC[C@@H]3c3cc(F)ccc3OC)cn12 [Example 55, (R)-N-(N-ethyl-N-methylsulfamoyl)-6-(2-(5-fluoro-2-methoxyphenyl)pyrrolidin-1-yl)imidazo[1,2-a]pyridine-3-carboxamide] | ≤ 50 |  |
| CCN(C)S(=O)(=O)NC(=O)c1cnc2ccc(N3CCCC3c3cc(F)cc4c3OCCO4)cn12 (single isomer, unassigned) [Example 72, N-(N-ethyl-N-methylsulfamoyl)-6-(2-(7-fluoro-2,3-dihydrobenzo [b][1,4]dioxin-5-yl)pyrrolidin-1-yl)imidazo[1,2-a]pyridine-3-carboxamide] | 100 to 500 |  |
| CN(c1cnccn1)S(=O)(=O)NC(=O)c1cnc2ccc(N3CCC[C@@H]3c3cc(F)ccc3F)cn12 [Example 45, (R)-6-(2-(2,5-difluorophenyl)pyrrolidin-1-yl)-N-(N-methyl-N-(pyrazin-2-yl)sulfamoyl)imidazo[1,2-a]pyridine-3-carboxamide] | ≤ 50 |  |
| Cc1nnc(N(C)S(=O)(=O)NC(=O)c2cnc3ccc(N4CCC[C@@H]4c4cc(F)ccc4OC4CCOCC4)cn23)s1 [Example 85, (R)-6-(2-(5-fluoro-2-((tetrahydro-2H-pyran-4-yl)oxy)phenyl)pyrrolidin-1-yl)-N—(N-methyl-N-(5-methyl-1,3,4-thiadiazol-2-yl)sulfamoyl)imidazo[1,2-a]pyridine-3-carboxamide] | ≤ 50 |  |
| CN(c1ccccn1)S(=O)(=O)NC(=O)c1cnc2ccc(N3CCC[C@@H]3c3cc(F)ccc3F)cn12 [Example 47, (R)-6-(2-(2,5-difluorophenyl)pyrrolidin-1-yl)-N-(N-methyl-N-(pyridin-2-yl)sulfamoyl)imidazo[1,2-a]pyridine-3-carboxamide] | ≤ 50 |  |
| CC1(S(=O)(=O)NC(=O)c2cnc3ccc(N4CCCCC4c4cc(F)cc5c4OCCO5)cn23)CC1 (single isomer, unassigned) [Example 52, 6-(2-(7-fluoro-2,3-dihydrobenzo[b][1,4]dioxin-5-yl)piperidin-1-yl)-N-((1-methylcyclopropyl)sulfonyl)imidazo[1,2-a]pyridine-3-carboxamide] |  | 1000 to 10000 |
| CN(CCF)S(=O)(=O)NC(=O)c1cnc2ccc(N3CCCC3c3cc(F)cc4c3OCCO4)cn12 (single isomer, unassigned) [Example 71, 6-(2-(7-fluoro-2,3-dihydrobenzo[b][1,4]dioxin-5-yl)pyrrolidin-1-yl)-N-(N-(2-fluoroethyl)-N-methylsulfamoyl)imidazo[1,2-a]pyridine-3-carboxamide] | 100 to 500 |  |

The remaining lines, values ahead:

| IC50 [1] [nM] | IC50 (read-out: TrkA inhibitory activity in-vitro IC50) [nM] | Structure (SMILES) |
| --- | --- | --- |
| ≤ 50 |  | CCN(CC)S(=O)(=O)NC(=O)c1cnc2ccc(N3C[C@@H](F)C[C@@H]3c3cc(F)ccc3O[C@@H]3CCOC3)cn12 [Example 74, N—(N,N-diethylsulfamoyl)-6-((2R,4S)-4-fluoro-2-(5-fluoro-2-(((R)-tetrahydrofuran-3-yl)oxy)phenyl)pyrrolidin-1-yl)imidazo[1,2-a]pyridine-3-carboxamide] |
| ≤ 50 |  | CN(C1CC1)S(=O)(=O)NC(=O)c1cnc2ccc(N3C[C@@H](F)C[C@@H]3c3cc(F)ccc3OC3CCOCC3)cn12 [Example 108, N—(N-cyclopropyl-N-methylsulfamoyl)-6-((2R,4S)-4-fluoro-2-(5-fluoro-2-((tetrahydro-2H-pyran-4-yl)oxy)phenyl)pyrrolidin-1-yl)imidazo[1,2-a]pyridine-3-carboxamide] |
| ≤ 50 |  | CCN(C)S(=O)(=O)NC(=O)c1cnc2ccc(N3CCCC3c3cc(F)ccc3O[C@@H]3CCOC3)cn12 (single isomer, unassigned) [Example 63] |
| ≤ 50 |  | CCCN(C)S(=O)(=O)NC(=O)c1cnc2ccc(N3CCC[C@@H]3c3cc(F)ccc3O[C@@H]3CCOC3)cn12 [Example 107, 6-((R)-2-(5-fluoro-2-(((R)-tetrahydrofuran-3-yl)oxy)phenyl)pyrrolidin-1-yl)-N—(N-methyl-N-propylsulfamoyl)imidazo[1,2-a]pyridine-3-carboxamide] |
| ≤ 50 |  | CCCN(C)S(=O)(=O)NC(=O)c1cnc2ccc(N3C[C@@H](F)C[C@@H]3c3cc(F)ccc3OC3CCOCC3)cn12 [Example 88, 6-((2R,4S)-4-fluoro-2-(5-fluoro-2-((tetrahydro-2H-pyran-4-yl)oxy)phenyl)pyrrolidin-1-yl)-N—(N-methyl-N-propylsulfamoyl)imidazo[1,2-a]pyridine-3-carboxamide] |
| ≤ 50 |  | CC(C)(C)S(=O)(=O)NC(=O)c1cnc2ccc(N3C[C@@H](F)C[C@@H]3c3cc(F)ccc3O[C@@H]3CCOC3)cn12 [Example 59, N-(tert-butylsulfonyl)-6-((2R,4S)-4-fluoro-2-(5-fluoro-2-(((R)-tetrahydrofuran-3-yl)oxy)phenyl)pyrrolidin-1-yl)imidazo[1,2-a]pyridine-3-carboxamide] |
| ≤ 50 |  | CCN(C)S(=O)(=O)NC(=O)c1cnc2ccc(N3C[C@@H](F)C[C@@H]3c3cc(F)ccc3O[C@@H]3CCOC3)cn12 [Example 60, N-(N-ethyl-N-methylsulfamoyl)-6-((2R,4S)-4-fluoro-2-(5-fluoro-2-(((R)-tetrahydrofuran-3-yl)oxy)phenyl)pyrrolidin-1-yl)imidazo[1,2-a]pyridine-3-carboxamide] |

From patent US9394305B2, “Substituted imidazo[1,2-a]pyridine compounds as tropomyosin receptor kinase a (TrkA) inhibitors” (Dr. Reddy's Laboratories Ltd., priority 2014, dated 2016)
